The subject of assay [1] is RT-4. Description: Proliferation of tumor cell lines (Bracht et al.). The note with it: Homo sapiens, read-out: IC50 (μM) Mean, inhibition of cell proliferation. It counts as cell-based.
Assay [2] addresses T1, EGF-R (Homo sapiens, UniProt P00533).
T1 construct: made in house; host or cells: Sf9 insect cells, baculovirus
Description: Radiometric protein kinase assay (33PanQinase Activity Assay). It counts as biochemical. Particulars: 1 μM ATP.

Assay [3] addresses T2, ARK5 (Homo sapiens, UniProt O60285).
T2 construct: made in house; host or cells: Sf9 insect cells, baculovirus
T2 sequence (O60285 1-661): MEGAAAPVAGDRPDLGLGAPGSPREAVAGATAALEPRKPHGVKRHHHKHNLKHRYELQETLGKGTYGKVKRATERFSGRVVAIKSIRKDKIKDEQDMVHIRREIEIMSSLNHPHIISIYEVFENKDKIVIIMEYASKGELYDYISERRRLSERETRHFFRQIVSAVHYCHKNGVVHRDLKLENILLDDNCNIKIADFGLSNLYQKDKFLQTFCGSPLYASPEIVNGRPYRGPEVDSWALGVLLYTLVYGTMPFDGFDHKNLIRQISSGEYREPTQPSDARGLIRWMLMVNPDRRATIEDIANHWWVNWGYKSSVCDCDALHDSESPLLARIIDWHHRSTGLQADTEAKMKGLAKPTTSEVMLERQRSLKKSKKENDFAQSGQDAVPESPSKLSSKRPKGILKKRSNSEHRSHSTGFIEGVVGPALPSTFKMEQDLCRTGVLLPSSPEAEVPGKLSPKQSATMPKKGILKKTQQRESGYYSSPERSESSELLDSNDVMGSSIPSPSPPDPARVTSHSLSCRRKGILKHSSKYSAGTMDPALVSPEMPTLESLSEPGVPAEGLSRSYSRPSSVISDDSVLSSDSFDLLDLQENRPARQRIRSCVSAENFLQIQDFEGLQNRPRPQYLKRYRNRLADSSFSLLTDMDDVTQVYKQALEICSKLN
The assay is described as above. It counts as biochemical. From the text:
(§1) AKTI1, ARK5, Aurora-A, Aurora-B, B-RAF-VE, CDK2/CycA, CDK4/CycD1, CK2-alpha1 (catalytic subunit of CK2), EGF-R, EPHB4, ERBB2, FAK, IGF1-R, SRC, VEGF-R2, VEGF-R3, FLT3, INS-R, MET, PDGFR-beta, PLK1, SAK, TIE2, COT.
(§2) All the protein kinases were expressed in Sf9 insect cells as human recombinant GST fusion proteins or His-tagged proteins by the baculovirus expression system. Kinases were purified by affinity chromatography either by GSH-agarose (Sigma) or Ni—NTH-agarose (Qiagen). The purity of the kinases was tested by SDS-PAGE/silver staining, and the identity of the kinases was verified by Western blot analysis with specific antibodies or mass spectroscopy.
(§3) A radiometric protein kinase assay (33PanQinase® Activity Assay) was used to measure the kinase activity for the 24 protein kinases. The kinase assays were carried out in 96-well FlashPlates™ from Perkin Elmer/NEN (Boston, Mass., USA) in a reaction volume of 50 μl. The reaction mixture was pipetted in 4 steps in the following sequence: • 20 μl of assay buffer • 5 μl of ATP solution (in H2O) • 5 μl of test compound (in 10% DMSO) • 10 μl of substrate/10 μl of enzyme solution (premixed)
(§4) The assays for all the enzymes contained 60 mM HEPES-NaOH, pH 7.5, 3 mM MgCl2, 3 mM MnCl2, 3 μM Na orthovanadate, 1.2 mM DTT, 50 μg/ml PEG20000, 1 μM [γ-^33P]-ATP (about 5×10^5 cpm per well).
(§5) The reaction mixture was incubated at 30° C. for 80 minutes. The reaction was stopped with 50 μl of 2% (v/v) H3PO4. The plates were aspirated and washed twice with 200 μl of 0.9% (w/v) NaCl. The incorporation of ^33Pi was determined using a microtiter plates scintillation counter (Microbeta Trilux, Wallac).

Assay [4] has as its target T3, B-RAF-VE (Homo sapiens, UniProt P15056, V600E).
T3 construct: made in house; host or cells: Sf9 insect cells, baculovirus
The description is as above. It counts as biochemical.
From the text: as §1, §2, §3, §4, §5

Assay [5] addresses T4, EPHB4 (Homo sapiens, UniProt P54760).
T4 construct: made in house; host or cells: Sf9 insect cells, baculovirus
T4 sequence (P54760 16-987): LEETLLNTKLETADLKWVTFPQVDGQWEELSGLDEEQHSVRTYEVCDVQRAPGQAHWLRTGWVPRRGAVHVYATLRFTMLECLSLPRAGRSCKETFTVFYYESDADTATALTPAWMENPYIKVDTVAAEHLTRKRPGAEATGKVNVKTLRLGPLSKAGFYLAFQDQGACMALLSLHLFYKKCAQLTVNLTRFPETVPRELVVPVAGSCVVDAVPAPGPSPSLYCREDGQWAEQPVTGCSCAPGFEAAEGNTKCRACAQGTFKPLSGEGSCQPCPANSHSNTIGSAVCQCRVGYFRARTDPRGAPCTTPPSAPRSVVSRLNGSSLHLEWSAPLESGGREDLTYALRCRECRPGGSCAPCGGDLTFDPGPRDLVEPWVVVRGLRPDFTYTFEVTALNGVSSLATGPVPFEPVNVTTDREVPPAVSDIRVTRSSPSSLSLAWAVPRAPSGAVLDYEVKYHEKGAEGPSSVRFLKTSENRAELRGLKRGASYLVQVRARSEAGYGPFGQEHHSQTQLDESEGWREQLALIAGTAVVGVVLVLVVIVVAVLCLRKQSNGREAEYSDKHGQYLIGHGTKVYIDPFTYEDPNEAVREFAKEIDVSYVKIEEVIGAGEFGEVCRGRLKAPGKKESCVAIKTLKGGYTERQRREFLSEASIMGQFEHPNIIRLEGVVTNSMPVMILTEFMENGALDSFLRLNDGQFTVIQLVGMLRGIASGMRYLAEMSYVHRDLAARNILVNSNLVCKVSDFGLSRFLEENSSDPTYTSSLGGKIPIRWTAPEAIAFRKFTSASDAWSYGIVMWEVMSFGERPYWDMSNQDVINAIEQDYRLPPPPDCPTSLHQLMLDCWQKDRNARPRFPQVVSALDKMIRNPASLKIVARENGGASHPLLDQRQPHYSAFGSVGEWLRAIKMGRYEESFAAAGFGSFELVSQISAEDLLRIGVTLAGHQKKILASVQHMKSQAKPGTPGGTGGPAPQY
The assay is described as above. It counts as biochemical.
From the text: as §1, §2, §3, §4, §5

The target of assay [6] is T5, ERBB2 (Homo sapiens, UniProt P04626).
T5 construct: made in house; host or cells: Sf9 insect cells, baculovirus
T5 sequence (P04626 23-1255): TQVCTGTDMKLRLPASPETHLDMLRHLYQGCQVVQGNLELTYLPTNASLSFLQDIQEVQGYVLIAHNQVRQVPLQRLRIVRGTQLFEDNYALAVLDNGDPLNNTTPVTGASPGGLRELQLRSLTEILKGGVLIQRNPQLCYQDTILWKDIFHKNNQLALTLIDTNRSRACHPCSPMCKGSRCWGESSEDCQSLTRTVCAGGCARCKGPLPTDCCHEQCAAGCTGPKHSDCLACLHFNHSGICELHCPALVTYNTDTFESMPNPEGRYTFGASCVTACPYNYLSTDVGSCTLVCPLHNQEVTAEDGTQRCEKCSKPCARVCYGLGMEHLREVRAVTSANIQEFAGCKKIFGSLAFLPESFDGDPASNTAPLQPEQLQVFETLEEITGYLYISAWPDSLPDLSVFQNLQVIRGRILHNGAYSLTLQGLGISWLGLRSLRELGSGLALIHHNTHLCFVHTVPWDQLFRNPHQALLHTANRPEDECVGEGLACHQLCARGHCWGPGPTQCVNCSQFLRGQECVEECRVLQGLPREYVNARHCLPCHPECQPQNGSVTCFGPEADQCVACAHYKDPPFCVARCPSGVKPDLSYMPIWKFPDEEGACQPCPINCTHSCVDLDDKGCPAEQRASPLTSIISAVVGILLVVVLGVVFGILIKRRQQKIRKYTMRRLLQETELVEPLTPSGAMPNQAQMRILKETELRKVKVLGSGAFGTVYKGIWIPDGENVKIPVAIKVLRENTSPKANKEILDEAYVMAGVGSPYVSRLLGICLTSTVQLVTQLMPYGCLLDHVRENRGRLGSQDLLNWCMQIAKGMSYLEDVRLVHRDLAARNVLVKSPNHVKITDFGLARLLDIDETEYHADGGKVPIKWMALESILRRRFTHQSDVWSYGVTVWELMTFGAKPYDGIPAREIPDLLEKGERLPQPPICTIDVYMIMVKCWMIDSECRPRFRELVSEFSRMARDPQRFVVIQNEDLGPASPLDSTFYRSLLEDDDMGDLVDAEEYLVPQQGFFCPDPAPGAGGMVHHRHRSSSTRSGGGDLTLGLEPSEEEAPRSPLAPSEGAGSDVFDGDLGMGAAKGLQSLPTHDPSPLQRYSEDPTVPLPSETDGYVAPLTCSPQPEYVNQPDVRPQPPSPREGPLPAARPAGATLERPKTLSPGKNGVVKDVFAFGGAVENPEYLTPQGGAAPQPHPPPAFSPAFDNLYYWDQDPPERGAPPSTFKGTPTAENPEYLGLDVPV
The assay is described as above. It counts as biochemical.
From the text: as §1, §2, §3, §4, §5

The target in assay [7] is T6, SRC (Homo sapiens, UniProt P12931).
T6 construct: made in house; host or cells: Sf9 insect cells, baculovirus
T6 sequence (P12931 whole entry): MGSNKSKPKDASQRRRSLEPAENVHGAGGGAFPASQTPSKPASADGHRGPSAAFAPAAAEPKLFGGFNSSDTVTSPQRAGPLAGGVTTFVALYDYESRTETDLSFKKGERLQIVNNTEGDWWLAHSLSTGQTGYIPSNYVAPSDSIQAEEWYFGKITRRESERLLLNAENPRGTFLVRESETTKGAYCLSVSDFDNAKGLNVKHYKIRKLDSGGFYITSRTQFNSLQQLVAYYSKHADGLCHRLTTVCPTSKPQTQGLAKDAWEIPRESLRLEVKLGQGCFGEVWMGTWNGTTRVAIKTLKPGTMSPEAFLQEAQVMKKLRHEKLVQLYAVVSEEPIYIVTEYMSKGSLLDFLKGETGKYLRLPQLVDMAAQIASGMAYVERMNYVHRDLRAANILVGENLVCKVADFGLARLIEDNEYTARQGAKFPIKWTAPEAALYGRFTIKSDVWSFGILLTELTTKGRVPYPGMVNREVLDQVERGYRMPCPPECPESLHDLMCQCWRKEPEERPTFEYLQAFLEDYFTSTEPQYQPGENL
Described as above. It counts as biochemical.
From the text: as §1, §2, §3, §4, §5

The target of assay [8] is T7, PDGFR-beta (Homo sapiens, UniProt P09619).
T7 construct: made in house; host or cells: Sf9 insect cells, baculovirus
T7 sequence (P09619 33-1106): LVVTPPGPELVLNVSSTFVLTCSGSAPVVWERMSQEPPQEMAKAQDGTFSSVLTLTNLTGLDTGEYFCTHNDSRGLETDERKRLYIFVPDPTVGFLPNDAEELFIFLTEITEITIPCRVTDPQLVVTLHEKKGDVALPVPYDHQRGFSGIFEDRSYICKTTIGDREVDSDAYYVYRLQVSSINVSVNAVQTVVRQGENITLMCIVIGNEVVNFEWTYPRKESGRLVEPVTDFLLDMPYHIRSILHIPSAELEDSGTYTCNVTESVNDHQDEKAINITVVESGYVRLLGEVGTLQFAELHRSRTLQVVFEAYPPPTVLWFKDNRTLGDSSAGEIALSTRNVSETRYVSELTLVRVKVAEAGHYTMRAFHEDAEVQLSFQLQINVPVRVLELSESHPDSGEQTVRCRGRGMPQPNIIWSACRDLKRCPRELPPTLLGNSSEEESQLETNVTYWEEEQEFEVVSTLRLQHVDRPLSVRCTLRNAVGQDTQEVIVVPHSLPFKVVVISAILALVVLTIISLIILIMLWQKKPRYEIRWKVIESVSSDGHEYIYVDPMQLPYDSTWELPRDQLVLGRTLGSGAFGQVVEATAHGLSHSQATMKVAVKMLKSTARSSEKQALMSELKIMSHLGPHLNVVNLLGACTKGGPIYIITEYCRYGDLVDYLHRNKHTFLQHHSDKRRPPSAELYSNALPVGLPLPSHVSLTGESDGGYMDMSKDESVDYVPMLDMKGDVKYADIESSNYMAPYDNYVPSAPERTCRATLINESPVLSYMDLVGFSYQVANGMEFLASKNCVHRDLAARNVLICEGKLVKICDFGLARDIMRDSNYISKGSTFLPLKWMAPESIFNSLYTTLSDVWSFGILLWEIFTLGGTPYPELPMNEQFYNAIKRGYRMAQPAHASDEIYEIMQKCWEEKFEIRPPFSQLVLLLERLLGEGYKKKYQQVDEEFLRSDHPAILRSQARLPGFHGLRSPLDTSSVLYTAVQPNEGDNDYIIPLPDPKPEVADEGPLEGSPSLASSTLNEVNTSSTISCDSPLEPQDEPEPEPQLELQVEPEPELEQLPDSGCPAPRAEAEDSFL
The description is as above. It counts as biochemical. The note with it: 1 μM ATP.

Where [9] appears, read: 1 μM ATP, read-out: IC50 values [μM] ARK5.
[10] abbreviates: 1 μM ATP, read-out: IC50 values [μM] B-RAF-VE.
Setting [11] is: 1 μM ATP, read-out: IC50 values [μM] EPHB4.
The mark [12] stands for this setting: 1 μM ATP, read-out: IC50 values [μM] ERBB2.
[13] abbreviates: 1 μM ATP, read-out: IC50 values [μM] SRC.

Like-named read-outs stand apart in the source and are kept apart here. Bounds are passed on as bounds.

T3 sequence (P15056 whole entry V600E): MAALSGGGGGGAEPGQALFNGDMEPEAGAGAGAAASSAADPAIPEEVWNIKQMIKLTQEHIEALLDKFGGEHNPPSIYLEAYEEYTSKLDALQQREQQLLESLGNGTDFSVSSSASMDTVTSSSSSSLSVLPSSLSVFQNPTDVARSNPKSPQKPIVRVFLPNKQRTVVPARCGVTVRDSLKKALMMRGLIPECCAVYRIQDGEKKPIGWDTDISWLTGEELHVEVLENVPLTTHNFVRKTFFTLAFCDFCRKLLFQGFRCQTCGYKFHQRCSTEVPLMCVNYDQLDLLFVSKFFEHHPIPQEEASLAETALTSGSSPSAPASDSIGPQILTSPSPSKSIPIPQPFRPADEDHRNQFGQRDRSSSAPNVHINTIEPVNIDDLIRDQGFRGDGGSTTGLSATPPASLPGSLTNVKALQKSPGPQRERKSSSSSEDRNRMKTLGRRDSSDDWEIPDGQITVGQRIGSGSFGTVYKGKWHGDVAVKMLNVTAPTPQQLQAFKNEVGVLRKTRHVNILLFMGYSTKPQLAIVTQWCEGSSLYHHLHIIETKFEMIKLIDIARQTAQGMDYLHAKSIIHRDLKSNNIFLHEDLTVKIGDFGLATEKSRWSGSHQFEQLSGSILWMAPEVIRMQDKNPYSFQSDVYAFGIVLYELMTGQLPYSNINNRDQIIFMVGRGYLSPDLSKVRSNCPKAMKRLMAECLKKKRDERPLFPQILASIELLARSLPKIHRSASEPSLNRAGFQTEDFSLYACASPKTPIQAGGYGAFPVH
T1 sequence (P00533 25-1210): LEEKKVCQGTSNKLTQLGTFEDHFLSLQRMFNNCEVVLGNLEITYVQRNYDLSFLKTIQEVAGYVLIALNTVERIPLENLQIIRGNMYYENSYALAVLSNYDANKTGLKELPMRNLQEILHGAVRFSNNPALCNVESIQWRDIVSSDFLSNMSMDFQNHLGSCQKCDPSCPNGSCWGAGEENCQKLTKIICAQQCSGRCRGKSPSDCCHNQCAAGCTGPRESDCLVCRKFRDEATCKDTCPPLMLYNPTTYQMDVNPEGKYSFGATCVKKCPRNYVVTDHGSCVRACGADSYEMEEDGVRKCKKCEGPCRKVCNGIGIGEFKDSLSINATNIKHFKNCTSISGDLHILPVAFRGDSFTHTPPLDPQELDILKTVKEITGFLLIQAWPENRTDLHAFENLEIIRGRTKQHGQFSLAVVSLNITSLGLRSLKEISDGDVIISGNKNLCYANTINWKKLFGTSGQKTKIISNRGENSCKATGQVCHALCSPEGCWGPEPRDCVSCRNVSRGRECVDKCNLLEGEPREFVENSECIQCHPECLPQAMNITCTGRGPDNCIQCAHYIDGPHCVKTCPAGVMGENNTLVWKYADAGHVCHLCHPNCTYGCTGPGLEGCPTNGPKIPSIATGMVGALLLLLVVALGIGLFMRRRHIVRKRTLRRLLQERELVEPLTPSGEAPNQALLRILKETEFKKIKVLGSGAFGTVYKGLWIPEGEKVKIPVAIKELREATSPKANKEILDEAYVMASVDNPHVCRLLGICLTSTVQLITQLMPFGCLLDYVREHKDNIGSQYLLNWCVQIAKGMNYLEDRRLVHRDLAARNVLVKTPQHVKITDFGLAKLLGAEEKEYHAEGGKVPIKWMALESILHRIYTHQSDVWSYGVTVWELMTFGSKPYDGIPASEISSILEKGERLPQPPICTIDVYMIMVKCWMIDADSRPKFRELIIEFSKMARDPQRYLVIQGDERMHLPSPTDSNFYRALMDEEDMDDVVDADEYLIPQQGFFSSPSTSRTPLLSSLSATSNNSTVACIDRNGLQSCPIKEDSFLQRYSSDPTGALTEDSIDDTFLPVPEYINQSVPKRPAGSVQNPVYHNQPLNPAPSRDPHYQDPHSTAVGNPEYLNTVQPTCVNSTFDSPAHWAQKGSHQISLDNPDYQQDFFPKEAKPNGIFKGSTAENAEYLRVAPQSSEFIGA

`O=c1ccc(=O)c2c1c1c(=O)c3ccccc3c1n2Cc1ccccc1` [Compound 6c, 5-Benzyl 5,6,9,10-tetrahydroindeno[1,2-b]indole-6,9,10-trione]: the IC50 in assay [1] is > 20 µM; in assay [2] it was 2.5 µM; in assay [3] (setting [9]) it was 1.3 µM; in assay [4] (setting [10]) it was > 10 µM; in assay [5] (setting [11]) it was 9.3 µM; in assay [6] (setting [12]), 7.6 µM. Besides, the IC50 in assay [7] (setting [13]) is 0.8 µM; in assay [8], > 10 µM.
With `CC(C)n1c2c(c3c1-c1ccccc1C3=O)C(=O)CCC2` [Compound 4b, 5-Isopropyl-5,6,7,8-tetrahydroindeno[1,2-b]indole-9,10-dione], the IC50 in assay [3], in assay [4], in assay [5], in assay [6] and in assay [7] was > 10 µM in each case.
Regarding `CC(C)n1c2c(=O)ccc(=O)c2c2c(=O)c3ccccc3c21` [Compound 6b, 5-Isopropyl-5H-indeno[1,2-b]indole-6,9,10-trione], the IC50 in assay [2] is > 10 µM; in assay [3] (setting [9]) it was 0.17 µM; in assay [4] (setting [10]) it was > 10 µM; in assay [5] (setting [11]), > 10 µM; in assay [6] (setting [12]), > 10 µM; in assay [7] (setting [13]), 1.6 µM. In assay [8], the IC50 is > 10 µM.

(Values after US8133913B2, “Substituted indeno [1,2-b]indole derivatives as novel inhibitors of protein kinase CK2 and their use as tumor therapeutic agents, cytostatics and diagnostic aids” (Heinrich-Heine Universitat Dusseldof, priority 2006, dated 2012).)
